Assay results published in patent EP3860599B1, “(+)-ALPHA-DIHYDROTETRABENAZINE DOSAGE REGIMEN FOR TREATING MOVEMENT DISORDERS” (Adeptio Pharmaceuticals Limited, priority 2018, dated 2020).
Read-outs that look alike come from different tables or passages of the source.

Columns and labels:
amphetamine-induced rats = test: Open field locomotor activity test in amphetamine-induced rats (Example 2, Studies 1, 2 and 4); assay type: in vivo; details: 1 mg/kg
Experimental: (§1) All animal experiments were carried out according to the National Institute of Health (NIH) guidelines for the care and use of laboratory animals, and approved by the National Animal Experiment Board, Finland. Male CD (Charles River Laboratories, Germany) at weight range of 200-250 g (165-200 g upon arrival) were used for the experiments. Animals were housed at a standard temperature (22 ± 1°C) and in a light-controlled environment (lights on from 7 am to 8 pm) with ad libitum access to food and water.
(§2) Locomotor activity of the rats was tested in open field arena. The open field test was performed during the rat light cycle and under a normal lighting evenly distributed to the test chambers. The paths of the rats were recorded by activity monitor (Med. Associates Inc.).
(§3) Dosing the vehicle, vehicle-amphetamine, (+)-α-DHTBZ or risperidone was done prior to LMA test. The rats were placed in the centre of the arena, and the path was recorded for 60 minutes.
Animals were grouped as follows: • Group 1: 10 rats treated with Vehicle (t= 0 min) and Vehicle (t= 30 min) • Group 2: 10 rats treated with Vehicle (t= 0 min) and Amphetamine (t= 30 min) • Group 3: 10 rats treated with (+)-α-DHTBZ 0.5 mg/kg (t=0 min) and Amphetamine (t= 30 min) • Group 4: 10 rats treated with (+)-α-DHTBZ 1 mg/kg (t=0 min) and Amphetamine (t= 30 min) • Group 5: 10 rats treated with (+)-α-DHTBZ 1.5 mg/kg (t=0 min) and Amphetamine (t= 30 min) • Group 6: 10 rats treated with (+)-α-DHTBZ 2 mg/kg (t=0 min) and Amphetamine (t= 30 min) • Group 7: 10 rats treated with risperidone 1 mg/kg (t=0 min) and Amphetamine (t= 30 min)
Animals were grouped as follows: • Group 1: 10 rats treated with Vehicle (t= 0 min) and Vehicle (t= 30 min) • Group 2: 10 rats treated with Vehicle (t= 0 min) and Amphetamine (t= 30 min) • Group 3: 10 rats treated with (+)-α-DHTBZ 0.1 mg/kg (t=0 min) and Amphetamine (t=30 min) • Group 4: 10 rats treated with (+)-α-DHTBZ 0.25 mg/kg (t=0 min) and Amphetamine (t=30 min) • Group 5: 10 rats treated with risperidone 1 mg/kg (t=0 min) and Amphetamine (t= 30 min)
Animals were grouped as follows: • Group 1: 10 rats treated with Vehicle (t= 0 min) and Vehicle (t= 30 min) • Group 2: 10 rats treated with Vehicle (t= 0 min) and Amphetamine (t= 30 min) • Group 3: 10 rats treated with (+)-α-DHTBZ 1 mg/kg (t=0 min) and Amphetamine (t=30 min) • Group 4: 10 rats treated with (+)-α-DHTBZ 1.5 mg/kg (t=0 min) and Amphetamine (t=30 min) • Group 5: 10 rats treated with Valbenazine 1 mg/kg (t=0 min) and Amphetamine (t=30 min) • Group 6: 10 rats treated with Valbenazine 1.5 mg/kg (t=0 min) and Amphetamine (t=30 min) • Group 7: 10 rats treated with risperidone 1 mg/kg (t=0 min) and Amphetamine (t= 30 min)

[1] = test system: non-amphetamine induced rats; test: Open field locomotor activity test in rats without amphetamine induction (Example 2, Study 3); assay type: in vivo; details: 1 mg/kg
Experimental: as §1, §2, §3
Animals were grouped as follows: • Group 1: 10 rats treated with Vehicle • Group 2: 10 rats treated with (+)-α-DHTBZ 2.5 mg/kg • Group 3: 10 rats treated with (+)-α-DHTBZ 5 mg/kg • Group 4: 10 rats treated with risperidone 1 mg/kg

[2] = cited from earlier work; for symptoms scored with the abnormal involuntary movement scale (AIMS): KINECT 1, tardive dyskinesia patients

SMILES	locomotor activity when compared to the vehicle-amphetamine group (amphetamine-induced rats; Study 1 conclusions)	stereotypic behaviour when compared to the vehicle-amphetamine group (amphetamine-induced rats; Study 1 conclusions)	locomotor activity when compared to the vehicle-amphetamine group (amphetamine-induced rats; Study 2 conclusions)	stereotypic behaviour when compared to the vehicle-amphetamine group (amphetamine-induced rats; Study 2 conclusions)	total movement [1]	total stereotypic behaviour [1]	symptoms scored with the abnormal involuntary movement scale (AIMS) ([2]; 50 mg/day)	symptoms scored with the abnormal involuntary movement scale (AIMS) ([2]; 100 mg/day)	Abnormal Involuntary Movement Score ([2]; KINECT 3, Tardive Dyskinesia sufferers, 80mg/day)
Cc1nc2n(c(=O)c1CCN1CCC(c3noc4cc(F)ccc34)CC1)CCCC2 [risperidone, reference compound]	lower locomotor activity	reduced stereotypic behaviour	lower locomotor activity	reduced stereotypic behaviour	reduced total movement	reduced total stereotypic behaviour			
COc1cc2c(cc1OC)[C@H]1C[C@@H](OC(=O)[C@@H](N)C(C)C)[C@H](CC(C)C)CN1CC2 [Valbenazine, reference compound]							did not show any significant signs of improvement	some reduction of symptoms	significant improvement
